In ChEMBL document CHEMBL5335775, “Bioisosteric replacement of 1H-1,2,3-triazole with 1H-tetrazole ring enhances anti-leukemic activity of (5-benzylthiazol-2-yl)benzamides” (Eur J Med Chem, 2023):
Activity calls are given as the source filed them. No cut-off for these calls is given here.

Assays:
[1] = Antiproliferative activity against J774.2 cells assessed as inhibition of cell proliferation measured after 72 hrs by MTT assay; assay type: toxicity, cell-based; conditions: mouse
[2] = Antiproliferative activity against human HaCaT cells assessed as inhibition of cell proliferation measured after 72 hrs by MTT assay; assay type: toxicity, cell-based
[3] = Antiproliferative activity against NIH3T3 cells assessed as inhibition of cell proliferation measured after 72 hrs by MTT assay; assay type: toxicity, cell-based; conditions: mouse
K562 [4] = assay: Antiproliferative activity against human K562 cells assessed as inhibition of cell proliferation measured after 72 hrs by MTT assay; assay type: functional, cell-based; conditions: K562, 72 h
KM12 = assay: Antiproliferative activity against human KM12 cells assessed as inhibition of cell proliferation measured after 48 hrs by SRB assay; assay type: functional, cell-based; conditions: KM12, 48 h
NCI/ADR-RES = assay: Antiproliferative activity against human NCI-ADR-RES cells assessed as inhibition of cell proliferation measured after 48 hrs by SRB assay; assay type: functional, cell-based
PC-3 = assay: Antiproliferative activity against human PC-3 cells assessed as inhibition of cell proliferation measured after 48 hrs by SRB assay; assay type: functional, cell-based; conditions: PC-3, 48 h
OVCAR-4 = assay: Antiproliferative activity against human OVCAR-4 cells assessed as inhibition of cell proliferation measured after 48 hrs by SRB assay; assay type: functional, cell-based; conditions: OVCAR-4, 48 h
CAKI-1 [5] = assay: Antiproliferative activity against human CAKI-1 cells assessed as inhibition of cell proliferation measured after 48 hrs by SRB assay; assay type: functional, cell-based; conditions: CAKI-1, 48 h
SK-MEL-5 [6] = assay: Antiproliferative activity against human SK-MEL-5 cells assessed as inhibition of cell proliferation measured after 48 hrs by SRB assay; assay type: functional, cell-based; conditions: SK-MEL-5, 48 h
BT-549 = assay: Antiproliferative activity against human BT-549 cells assessed as inhibition of cell proliferation measured after 48 hrs by SRB assay; assay type: functional, cell-based; conditions: BT-549, 48 h
UACC-62 [7] = assay: Antiproliferative activity against human UACC-62 cells assessed as inhibition of cell proliferation measured after 48 hrs by SRB assay; assay type: functional, cell-based; conditions: UACC-62, 48 h
MDA-MB-468 = assay: Antiproliferative activity against human MDA-MB-468 cells assessed as inhibition of cell proliferation measured after 48 hrs by SRB assay; assay type: functional, cell-based; conditions: MDA-MB-468, 48 h
NCI-H460 = assay: Anticancer activity against human NCI-H460 cells assessed as cell growth at 10^-5 M incubated for 48 hrs by SRB assay relative to control; assay type: functional; conditions: NCI-H460, 48 h, dose 1 10^-5M, read-out: Activity
UACC-62 [8] = assay: Inhibition of cell growth in human UACC-62 cells incubated for 48 hrs by SRB assay; assay type: functional, cell-based; conditions: UACC-62, 48 h
SK-MEL-5 [9] = assay: Anticancer activity against human SK-MEL-5 cells assessed as cell growth at 10^-5 M incubated for 48 hrs by SRB assay relative to control; assay type: functional; conditions: SK-MEL-5, 48 h, dose 1 10^-5M, read-out: Activity
UACC-62 [10] = assay: Anticancer activity against human UACC-62 cells assessed as cell growth at 10^-5 M incubated for 48 hrs by SRB assay relative to control; assay type: functional; conditions: UACC-62, 48 h, dose 1 10^-5M, read-out: Activity
K562 [11] = assay: Anticancer activity against human K562 cells assessed as cell growth at 10^-5 M incubated for 48 hrs by SRB assay relative to control; assay type: functional; conditions: K562, 48 h, dose 1 10^-5M, read-out: Activity
LOX IMVI = assay: Anticancer activity against human LOX IMVI cells assessed as cell growth at 10^-5 M incubated for 48 hrs by SRB assay relative to control; assay type: functional; conditions: dose 1 10^-5M, read-out: Activity
SW-620 = assay: Inhibition of cell growth in human SW-620 cells incubated for 48 hrs by SRB assay; assay type: functional, cell-based; conditions: SW-620, 48 h
HCT-15 = assay: Inhibition of cell growth in human HCT-15 cells incubated for 48 hrs by SRB assay; assay type: functional, cell-based; conditions: HCT-15, 48 h
M14 [12] = assay: Inhibition of cell growth in human M14 cells incubated for 48 hrs by SRB assay; assay type: functional, cell-based; conditions: M14, 48 h
M14 [13] = assay: Anticancer activity against human M14 cells assessed as cell growth at 10^-5 M incubated for 48 hrs by SRB assay relative to control; assay type: functional; conditions: M14, 48 h, dose 1 10^-5M, read-out: Activity
K562 [14] = assay: Inhibition of cell growth in human K562 cells incubated for 48 hrs by SRB assay; assay type: functional, cell-based; conditions: K562, 48 h
[15] = Selectivity index, ratio of IC50 for […] to IC50 for human K562 cells; assay type: functional
HCC 2998 = assay: Anticancer activity against human HCC 2998 cells assessed as cell growth at 10^-5 M incubated for 48 hrs by SRB assay relative to control; assay type: functional; conditions: HCC 2998, 48 h, dose 1 10^-5M, read-out: Activity
SF-295 = assay: Anticancer activity against human SF-295 cells assessed as cell growth at 10^-5 M incubated for 48 hrs by SRB assay relative to control; assay type: functional; conditions: SF-295, 48 h, dose 1 10^-5M, read-out: Activity
CAKI-1 [16] = assay: Anticancer activity against human CAKI-1 cells assessed as cell growth at 10^-5 M incubated for 48 hrs by SRB assay relative to control; assay type: functional; conditions: CAKI-1, 48 h, dose 1 10^-5M, read-out: Activity
K562 [17] = assay: Induction of DNA damage in human K562 cells assessed as olive tail moment level at 70 nM incubated for 24 hrs by comet assay (reference value: 0.2); assay type: functional
K562 [18] = assay: Induction of DNA damage in human K562 cells assessed as tail DNA level at 70 nM incubated for 24 hrs by comet assay (reference value: 0.5 to 0.6 %); assay type: functional
K562 [19] = assay: Induction of pro-apoptotic morphological changes in human K562 cells at 70 to 700 nM incubated for 24 hrs by Hoescht-33342 staining based analysis; assay type: functional, cell-based; conditions: dose 70-700 nM
K562 [20] = assay: Induction of DNA damage in human K562 cells assessed as tail DNA level at 700 nM incubated for 24 hrs by comet assay (reference value: 0.5 to 0.6 %); assay type: functional
K562 [21] = assay: Induction of DNA damage in human K562 cells assessed as olive tail moment level at 700 nM incubated for 24 hrs by comet assay (reference value: 0.2); assay type: functional

`CC(C)c1nnnn1-c1ccc(C(=O)Nc2ncc(Cc3ccccc3)s2)cc1` showed an IC50 at 72 h [1] of 8.94 µM, an IC50 at 72 h [2] of 5.59 µM and an IC50 at 72 h [3] greater than 100 µM. For the same molecule, the IC50 (K562 [4]) was greater than 100 µM.

With `Cc1cnnn1-c1ccc(C(=O)Nc2ncc(Cc3ccccc3)s2)cc1` the IC50 (KM12) was 3.68 µM, the IC50 (NCI/ADR-RES) was 4.06 µM and the IC50 (PC-3) was 4.26 µM. The IC50 (OVCAR-4) was 3.02 µM, the IC50 (CAKI-1 [5]) was 4.7 µM and the IC50 (SK-MEL-5 [6]) was 2.8 µM. It also gave an IC50 (BT-549) of 3.99 µM, an IC50 (UACC-62 [7]) of 3.28 µM and an IC50 (MDA-MB-468) of 2.02 µM.

In the case of `O=C(Nc1ncc(Cc2cc(Cl)ccc2Cl)s1)c1ccc(-n2cnnn2)cc1`, the growth at 10 µM (NCI-H460) is reported as 33%, the IC50 (UACC-62 [8]) is reported as 0.364 µM and the growth at 10 µM (SK-MEL-5 [9]) is reported as 22.4%. For the same molecule, the growth at 10 µM (UACC-62 [10]) was 8.26%, the growth at 10 µM (K562 [11]) was 22.8% and the growth at 10 µM (LOX IMVI) was 22.6%. For the same molecule, the IC50 at 72 h [1] was 34.7 µM, the IC50 (SW-620) was 0.508 µM and the IC50 (HCT-15) was 0.894 µM. The IC50 (M14 [12]) was 0.696 µM, the IC50 at 72 h [2] was greater than 100 µM and the IC50 at 72 h [3] was greater than 100 µM. For the same molecule, the growth at 10 µM (M14 [13]) was 24.6%, the IC50 (K562 [14]) was 0.577 µM and the IC50 (K562 [4]) was 7.57 µM. The “Ratio IC50” value [15] was 4.6, the growth at 10 µM (HCC 2998) was 22.7% and the growth at 10 µM (SF-295) was 30.9%. The growth at 10 µM (CAKI-1 [16]) was 29%.

Molecule `COc1cccc2c1C(=O)c1c(O)c3c(c(O)c1C2=O)C[C@@](O)(C(=O)CO)C[C@@H]3O[C@H]1C[C@H](N)[C@H](O)[C@H](C)O1` [DOXORUBICIN] has an Activity (K562 [17]) of 0.4, an IC50 at 72 h [1] of 0.64 µM and an Activity (K562 [18]) of 0.7%. For the same molecule, the IC50 at 72 h [2] was 0.86 µM, the Activity (K562 [19]) was “inactive” and the IC50 at 72 h [3] was 0.79 µM. The Activity (K562 [20]) was 3.5% and the Activity (K562 [21]) was 1.
